The values that follow come from patent publication US9937194B1, “Compounds and methods for treating inflammatory diseases” (priority 2009, dated 2018).

The term IC50 denotes the point on the concentration scale where inhibition reaches its midpoint. Low values mean greater potency, high ones weaker potency.

Data set [1] has as its system HDAC2 mRNA. Description: Cigarette smoke extract-induced reduction of HDAC2 mRNA in A549 cells. In kind it is cell-based, human. As for the experimental part: Preparations of cigarette smoke extract. To prepare the cigarette smoke extract, two full-strength Marlboro cigarettes (filters removed; Phillip Morris USA, Richmond, Va.) are combusted through a modified 60-ml syringe apparatus, and the smoke passed through 20 ml of DMEM medium. Each cigarette generally yields five draws of the syringe (to the 60-ml mark), with each individual draw taking approximately 10 s to complete. Cigarette smoke extract is then passed through a 0.20-μm filter to sterilize and remove particulate matter and is used immediately unless otherwise stated.
Quantitative RT-PCR. Total RNA extraction and reverse transcription are performed using an RNeasy kit (QIAGEN, Crawley, UK) and a High-Capacity cDNA Reverse Transcription Kits (Applied Biosystems, Foster City, Calif.). Gene transcript level of HDAC2 (HS00231032_M1, Applied Biosystems, California, USA) and the house-keeping gene, guanine nucleotide binding protein beta polypeptide-2-like 1 (GNB2L1) (HS00272002_M1, Applied Biosystems) are quantified by real-time PCR using a TaqMan® Gene Expression Master Mix (Applied Biosystems) on a Rotor-Gene 6000 (Corbett Research, Cambridge, UK). Transcripts are analysed by the delta (D) CT method and variations in cDNA concentrations between different samples were corrected using GNB2L1.
Effects of macrolides on cigarette smoke extract-induced (CSE-induced) reduction of HDAC2 mRNA in A549 cells. Cells pretreated with compounds described herein for 30 min are exposed to CSE (0.15 O.D.) for 1 hr. The cells are washed twice and incubated with medium only for 4 hrs. Data are expressed as % reduction from baseline (left) or % increase from baseline under H2O2. Values represent means of three experiments±SEM. Example 33 reverses cigarette smoke extract-induced (CSE-induced) reduction of HDAC2 mRNA expression in A549 cells at concentrations of about 10 μM or greater, and with statistical significance of p<0.05 versus treatment with CSE only (one-way ANOVA with post hoc test, n=3) at doses of about 30 μM or greater.

For data set [2], the system named is TNFα. Briefly: LPS-induced TNFα release in PMA-differentiated U937 cells (ELISA). The settings on record: for IC50: LPS-induced TNFα release, PMA-differentiated U937, NA = inactive. In kind it is cell-based, human. As for the experimental part:
(§1) Cytokine ELISA. LPS-induced IL-8, TNFα concentrations and TNFα-induced IL-8 concentrations are determined by sandwich ELISA according to the manufacturer's instructions (R&D Systems Europe). IC50 values for dexamethasone on IL-8 production are calculated using the computer program Prism 4.0 (GraphPad Software Inc., San Diego, Calif.) as a marker for steroid sensitivity.
(§2) Effects of compounds on LPS-induced IL-8 and TNFα release in PMA-differentiated U937 cells. PMA-differentiated macrophage-like cells are pretreated with compounds described herein for 1 hr, followed by LPS (100 ng/ml) stimulation for 4 hrs. LPS-induced IL-8 and TNFα release is evaluated by ELISA. Values represent means of three experiments±SEM.
(ELISA stands for enzyme-linked immunosorbent assay.)

The test system of data set [3] is MMP9. Description: PMA-induced MMP9 expression in U937 cells (gelatin zymography). In kind it is cell-based, human. As for the experimental part: Zymography. MMP9 enzyme activity is measured by gelatin zymography. 5 μl of supernatants were diluted with 5 μl Laemli sample buffer (Bio-Rad) and are loaded on a Novex® 10% Zymogram (Gelatin) gel (Invitrogen). After electrophoresis (90 min, 125 V, 35 mA, 5 W) gels are incubated with 1× Novex® zymogram renaturing buffer (Invitrogen) for 30 min at room temperature with gentle agitation. Gels are then rinsed in 1× Novex® zymogram developing buffer (Invitrogen) for 30 min at room temperature with gentle agitation prior to overnight incubation in the developing buffer at 37° C. After incubation the gels are stained using the colloidal blue staining kit (Invitrogen) with buffer containing 20% methanol and 70% distilled water to visualize the zymogen bands. Relevant band intensities are quantified by densitometric analysis using the UVP GelDoc-It system.
Effects of compounds on PMA-induced MMP9 expression in U937 cells. U937 cells are pretreated with compounds described herein for 1 hr, followed by PMA (50 ng/ml) treatment for 48 hrs. After 48 hrs supernatants are collected for zymography. MMP9 enzyme activity is measured by gelatin zymography. Data are expressed as fold changes against positive control treated with PMA only. Values represent means of three experiments±SEM.

Data set [4] deals with HDAC activity. Description: H2O2-induced reduction of HDAC activity in PMA-differentiated U937 cells. In kind it is cell-based, human. The settings on record: for HDAC activity reached compared with untreated controls: H2O2 200 μM, comparators at highest doses tested. As for the experimental part:
In cell HDAC assay. Cells are incubated with Fluor de Lys™ substrate for 1 hr before lyses. Total HDAC activity from whole cell extracts is measured using the HDAC Fluorimetric Assay/Drug Discovery Kit (BIOMOL® International, Inc., Plymouth Meeting, Pa.).
HDAC expression: In cell HDAC activity assay: U937 is differentiated to macrophage type cells by PMA for 3 days. HDAC fluorescent substrate (Biomol) is added before exposure of oxidative stress (H2O2, 200 μM) or Tobacco smoke conditioned medium for 4 hrs. HDAC activity is measured (Biomol kit). Compounds at different concentrations are treated 20 min before oxidative stress treatment.
PMA-differentiated macrophage-like cells are pretreated with compounds described herein for 20 min. After H2O2 (200 μM) stimulation for 4 hrs, HDAC activity is assayed. Data are expressed as fold changes against positive control treated with H2O2 only. Values represent means of four experiments±SEM.

Data set [5] has as its system IL-8. Briefly: LPS-induced IL-8 release in PMA-differentiated U937 cells (ELISA). The settings on record: for IC50: LPS-induced IL-8 release, PMA-differentiated U937, NA = inactive. In kind it is cell-based, human. As for the experimental part: as §1, §2
The test system of data set [6] is Akt. Briefly: H2O2-induced phosphorylation of Akt in PMA-differentiated U937 cells (western blot). In kind it is cell-based, human. The procedure:
Cell Lysis and Western Blotting. Whole cell protein extracts are prepared using modified RIPA buffer (50 mM Tris HCL pH 7.4, 0.5% NP-40, 0.25% Na-deoxycholate, 150 mM NaCl with freshly added complete protease (Roche). Phosphatase inhibitor (Active Motif) is also added when required. Protein concentration is determined using the Bio-Rad Protein Assay (Bio-Rad). Proteins are separated by SDS-PAGE under denaturing conditions, and electrotransferred to a nitrocellulose membrane (Amersham Biosciences, Amersham, U.K.) (Western blotting). The membranes are blocked in TBS containing 0.05% Tween 20 and 5% non-fat dried milk, and then incubated with anti-pAkt or Akt antibody followed by an horse radish peroxidase-conjugated secondary antibody (Dako UK Ltd., Ely, UK). Bound antibodies are visualized by ECL Plus (GE Healthcare UK Ltd., Little Chalfont, UK). The band density is calculated by densitometry (UVP Bioimaging Systems, Cambridge, UK) using Labworks software (Ultra-Violet Products, Cambridge, UK).
Effects of compounds on H2O2-induced phosphorylation of Akt in PMA-differentiated U937 cells. PMA-differentiated macrophage-like cells are pretreated with compounds described herein for 20 min. After H2O2 (1 mM) stimulation for 30 min, cells are lysed. Phosphorylation levels of Akt are measured by western blot. Data are calculated relative to total protein, and expressed as fold changes against positive control treated with H2O2 only. Values represent means of three or four experiments±SEM.
On the technique in general: In western blotting, separated proteins are transferred to a membrane and probed.

The test system of data set [7] is U937 cells. Briefly: H2O2-induced steroid insensitivity in U937 cells (dexamethasone IC50 on TNFα-induced IL-8). In kind it is cell-based, human. The settings on record: highest concentration tested (100 μM); H2O2 200 μM. As for the experimental part:
as §1
Restoration of steroid sensitivity. U937 cells: U937 are treated with oxidative stress (H2O2, 200 μM or 0.15 dilution CSM (cigarette smoke conditioned medium)) and 4 hours later, stimulated with TNFα (10 ng/ml) in the presence of dexamethasone (10^−11-10^−6M). Supernatant and cells are collected 24 hrs after stimulation and IL-8 is measured by conventional ELISA. As the index of corticosteroid sensitivity, IC50 of dexamethasone is calculated. Test compounds are treated 20 min before oxidative stress treatment.
Effects of compounds on H2O2-induced steroid insensitivity in U937 cells. Cells stimulated with H2O2 (200 μM) overnight are incubated with compounds described herein for 30 min under H2O2 (200 μM) exposure. The cells are treated with dexamethasone (10^−11 to 10^−6 M) for 20 min, followed by the TNFα stimulation overnight. TNFα-induced IL-8 release is evaluated by ELISA and IC50 values for dexamethasone on IL-8 production are calculated using Prism. Data are expressed as fold changes against positive control treated with H2O2 only. Values represent means of four experiments±SEM. H2O2 exposure reduces dexamethasone sensitivity by approximately 4 fold based on calculated IC50 values of TNFα-induced IL-8 production.

Data set [8] is classed as cell-based. The settings on record: human. As for the experimental part: The human monocytic cell line U937 and the human type II alveolar epithelial carcinoma cell line A549 were obtained from the American Type Culture Collection (ATCC, Rockville, Md.). PBMCs from COPD patients were obtained in Brompton hospital and separated by AccuSPIN (Sigma-Aldrich, Poole, UK). Cells were cultured in complete growth medium (Sigma-Aldrich) (RPMI 1640 for U937, PBMCs, and Dulbecco's modified essential medium (DMEM) for A549) supplemented with 10% fetal bovine serum (FBS) and 1% L-glutamine at 37° C. in a humidified atmosphere with 5% CO2. U937 were differentiated into an adherent macrophage-like morphology by exposure to PMA (50 or 100 ng/ml) for 48 hrs in complete growth medium. Cell viability was assessed microscopically by trypan blue staining. Cell toxicity was determined by MTT assay as needed. This study was approved by the ethics committee of the Royal Brompton Hospitals, and all subjects gave written informed consent.

The mark [9] stands for this setting: test concentration not given, bracketed second value not explained.

With `CCC1OC(=O)C(C)C(OC2CC(C)(OC)C(O)C(C)O2)C(C)C(OC2OC(C)CC(N(C)C)C2O)C(C)(O)CC(C)CN(C(C)=O)C(C)C2OC(=O)OC12C` (centres unmarked) [Example 33], the “concentration at which CSE-induced reduction of HDAC2 mRNA expression is reversed” value in data set [1] (A549, pretreated 30 min, CSE 0.15 O.D. 1 hr) was at least 10 µM. Further, the “concentration at which reversal of HDAC2 mRNA reduction is statistically significant” value in data set [1] (p<0.05 versus CSE only, n=3) was at least 30 µM. Also, the 50% inhibitory concentration (IC50) in data set [2] came to 97 ± 5 µM; in data set [3] (PMA-induced MMP9 expression, U937, NA = inactive), 56 ± 19 µM; in data set [5] it was 95 ± 14 µM. Besides, the “concentration at which LPS-induced TNFα release is inhibited” value in data set [2] (pretreated 1 hr, LPS 100 ng/ml 4 hrs, p<0.01, n=3) was at least 100 µM. For the same compound, the “concentration at which PMA-induced MMP9 up-regulation is inhibited” value in data set [3] (U937, pretreated 1 hr, PMA 50 ng/ml 48 hrs) is at least 33 µM. The “concentration at which inhibition of MMP9 up-regulation is statistically significant” value in data set [3] (p<0.05 versus PMA only, n=3) is at least 100 µM. Besides, the “HDAC activity reached compared with untreated controls” value in data set [4] (PMA-differentiated U937) is “higher than untreated controls”. In addition, in data set [4] (PMA-differentiated U937, pretreated 20 min, H2O2 200 μM 4 hrs), the “concentration at which the H2O2-induced reduction in HDAC activity is restored” value is at least 10 µM. Besides, in data set [4] (p<0.01 versus H2O2 only, n=4), the “concentration at which restoration of HDAC activity is statistically significant” value is at least 30 µM. Besides, the “concentration at which LPS-induced IL-8 release is inhibited” value in data set [5] (pretreated 1 hr, LPS 100 ng/ml 4 hrs, p<0.05, n=3) was at least 100 µM. In data set [6] (p<0.05 versus H2O2 only, n=3 or 4), the “concentration at which inhibition of Akt phosphorylation is statistically significant” value was at least 100 µM.

As to `CC[C@H]1OC(=O)[C@H](C)[C@@H](O[C@H]2C[C@@](C)(OC)[C@@H](O)[C@H](C)O2)[C@H](C)[C@@H](O[C@@H]2O[C@H](C)C[C@H](N(C)C)[C@H]2O)[C@](C)(OC)C[C@@H](C)C(=O)[C@H](C)[C@@H](O)[C@]1(C)O` [CLR, clarithromycin, reference compound], the half-inhibitory concentration (IC50) turned out to be 426 ± 64 µM in data set [2] (Homo sapiens, U-937) and 507 ± 44 µM in data set [5] (Homo sapiens, U-937). In addition, the “inhibition of LPS-induced TNFα release compared with Example 33” value in data set [2] (LPS 100 ng/ml 4 hrs) is listed as “at higher concentrations than Example 33”. In addition, in data set [2] (test concentration not given), the “TNFα inhibition (%)” value stood at 21%. Moreover, the “MMP9 inhibition (%)” value in data set [3] (setting [9]) was 8 (22) %. In addition, the “restoration of HDAC activity compared with Example 33” value in data set [4] (PMA-differentiated U937, H2O2 200 μM 4 hrs) was “only at much higher doses than Example 33”. In addition, the “HDAC activity reached compared with untreated controls” value in data set [4] (PMA-differentiated U937) is “only restore HDAC activity to levels comparable to untreated controls”. Also, the “restoration of H2O2-reduced HDAC activity (%)” value in data set [4] (setting [9]) turned out to be 14%. Also, the “inhibition of LPS-induced IL-8 release compared with Example 33” value in data set [5] (LPS 100 ng/ml 4 hrs) is given as “at higher concentrations than Example 33”. Also, the “IL-8 inhibition (%)” value in data set [5] (test concentration not given) was 17%. The “restoration of dexamethasone sensitivity” value in data set [7] is given as “None of ERY, CLR, or AZI restored dexamethasone sensitivity”. Moreover, the “inhibition of Akt phosphorylation compared with Example 33” value in data set [6] (PMA-differentiated U937, H2O2 1 mM 30 min) is “only at much higher concentrations than Example 33”. Also, the “Cell Toxicity (% cell death)” value in data set [8] is −7%.
